Measurements: US9327059B2, “Steroid-containing sustained release intraocular implants and related methods” (Allergan, Inc., priority 2004, dated 2016)
Where two headings read alike, the source gives them in different places. One block for each compound: values may come before it.

How the values were obtained:
[1] = In vivo fluocinolone acetonide levels in rabbit eyes after intravitreal implant
Experimental: The in vivo study was conducted on four rabbits. The fluocinolone-containing implants were surgically implanted into the posterior segment (i.e., the vitreous) of the right eye (OD) and left eye (OS) of each rabbit. The aqueous humor (15-20 μL) and the vitreous humor (150-200 μL) were withdrawn for the first two rabbits, while the sampling for the remaining two rabbits was determined by a sampling schedule wherein the sampling days were days 7, 14, 21, 40, and 60, 90, and 120.

[2] = Relative water solubility of the steroids; format: physicochemical
[3] = in vivo; cited from earlier work

fluocinolone acetonide level in anterior chamber / aqueous humor ([1]; implant configuration #29, any time point): not detected
Fluocinolone (ng/mL) in vitreous humor, single eye ([1]; intravitreal implant configuration #29, day 40): 40.80 ng/mL
concentration at 7 day ([1]; vitreous humor, intravitreal implant configuration #29, day 7): 95.9 ng/mL
concentration at 14 day ([1]; vitreous humor, intravitreal implant configuration #29, day 14): 50.9 ng/mL
concentration at 21 day ([1]; vitreous humor, intravitreal implant configuration #29, day 21): 45.7 ng/mL
concentration at 40 day ([1]; vitreous humor, intravitreal implant configuration #29, day 40, read-out: Fluocinolone (ng/mL) in vitreous humor, Average): 42.4 ng/mL
concentration at 40 day ([1]; vitreous humor, intravitreal implant configuration #29, day 40, read-out: Fluocinolone (ng/mL) in vitreous humor, single eye): 44 ng/mL
concentration at 60 day ([1]; vitreous humor, intravitreal implant configuration #29, day 60): 50.6 ng/mL
concentration at 90 day ([1]; vitreous humor, intravitreal implant configuration #29, day 90): 36.1 ng/mL
concentration at 120 day ([1]; vitreous humor, intravitreal implant configuration #29, day 120): 28.1 ng/mL
Compound: CC1(C)O[C@@H]2C[C@H]3[C@@H]4C[C@H](F)C5=CC(=O)C=C[C@]5(C)[C@@]4(F)[C@@H](O)C[C@]3(C)[C@]2(C(=O)CO)O1 [Fluocinolone acetonide, 1,4-pregnadien-6α, 9α-difluoro-11β, 16α,17,21-tetrol-3,20-dione 16,17-acetonide]

Compound: CC1(C)O[C@@H]2C[C@H]3[C@@H]4CCC5=CC(=O)C=C[C@]5(C)[C@@]4(F)[C@@H](O)C[C@]3(C)[C@]2(C(=O)CO)O1 [triamcinalone acetonide]
water solubility, times more soluble than beclomethasone dipropionate [2]: about 150 times

Compound: CC(C)OC(=O)CCC/C=C\C[C@@H]1[C@@H](CC[C@@H](O)CCc2ccccc2)[C@H](O)C[C@@H]1O [latanoprost]
human eyes with increase in brown pigment in the iris [3]: 5-15%
